From publication PMC4706877, “Antibacterial and Cytotoxic Activity of Compounds Isolated from Flourensia oolepis” (Evidence-based Complementary and Alternative Medicine : eCAM, 2015)
Converted amounts (≈) assume the structure as drawn. Like-named read-outs stand apart in the source and are kept apart here.

Assays:
[1] = test system: CCRF-CEM acute lymphoblastic leukemia cells; assay: MTT cell proliferation assay; assay type: cell-based, human; conditions: for IC50: CCRF-CEM, MTT, 72 h, read-out: IC50 values and 95% confidence limits (lower, upper)
Protocol: (§1) The HEK293T non-tumor derived cell line and human isolated mononuclear cells (PBMC) were also tested. […] Cells were cultured at 37°C in a 5% CO2 humidified environment.
(§2) To investigate the cytotoxic potential of the isolated compounds, the MTT colorimetric assay was performed. […] The compounds were evaluated at a final maximum concentration of 100 μM. After 72 hours, 20 μL of 5 mg/mL solution of MTT in sterile PBS was added to each well and further incubated for 4 h. Then, the supernatants were removed and replaced with 100 μL DMSO to solubilize the resulting purple formazan crystals produced from metabolically viable cells. Absorbance was measured with an iMark micro-plate reader (Bio-Rad, USA) at 595 nm. Two wells were used for each concentration of the products assayed and three independent experiments were performed. […] The percentage of cytotoxic activity of the assayed compounds was determined by the following formula: cytotoxicity (%) = [1 − (optical density of treated cells − optical density DMSO)/(optical density of ethanol control cells − optical density DMSO)] × 100.
(§3) Data were analyzed by one-way analysis of variance (ANOVA) and means were compared using Bonferroni's comparison test, with p ≤ 0.05 considered as statistically significant.

[2] = test system: K562 chronic myeloid leukemia cells; assay: MTT cell proliferation assay; assay type: cell-based, human; conditions: for IC50: K562, MTT, 72 h, read-out: IC50 values and 95% confidence limits (lower, upper)
Protocol: as §1, §2, §3

K562 cells = assay: Viable cell count by trypan blue dye exclusion; assay type: cell-based, human
Protocol: (§4) To confirm the effect of compound 1 on the proliferation of CCRF-CEM and K562, cell suspensions (5 × 10^4 cells/well) were treated in culture medium with different concentrations of 1 (final volume of 200 μL) and incubated in triplicate for 24, 48, and 72 h. Two independent experiments were performed. The number of viable cells at the different time points was counted by the trypan blue dye exclusion method using a hemocytometer (Neubaur, USA).

CCRF-CEM cells = assay: Viable cell count by trypan blue dye exclusion; assay type: cell-based, human
Protocol: as §4

[3] = test system: Escherichia coli (ATCC 25922); assay: Agar dilution MIC / MBC; assay type: cell-based; conditions: ATCC25922, E. coli
Protocol: (§5) This isolate was identified by conventional biochemical assays and by the commercial system API20E (bioMérieux SA, Mercy L'Etoile, France). Antimicrobial resistances were determined by disk diffusion susceptibility testing (Kirby-Bauer Method) according to CLSI [15]. Bacterial suspensions were prepared on sterile saline from each organism grown overnight. Turbidity was spectrophotometrically adjusted to the McFarland 0.5 standard. Dilutions were carried out with sterile saline to give an adjusted concentration of 1.5 × 10^7 colony-forming units/mL.
(§6) Three independent experiments were carried out. […] For reading, visual observations were carried out.

[4] = test system: Pseudomonas aeruginosa (ATCC 27853); assay: Agar dilution MIC / MBC; assay type: cell-based; conditions: ATCC27853, P. aeruginosa
Protocol: as §5, §6

[5] = test system: Staphylococcus aureus subsp. aureus (ATCC 6538); assay: Agar dilution MIC / MBC; assay type: cell-based; conditions: S. aureus; for MBC: value in parentheses
Protocol: as §5, §6

[6] = test system: tetracycline, erythromycin, and polymyxin-resistant Proteus mirabilis (Pr2921); assay: Agar dilution MIC / MBC; assay type: cell-based; conditions: P. mirabilis
Protocol: as §5, §6

[7] = test system: Enterococcus faecalis (ATCC 29212); assay: Agar dilution MIC / MBC; assay type: cell-based; conditions: ATCC29212, E. faecalis
Protocol: as §5, §6

[8] = test system: sensitive and resistant leukemic cells; assay: MTT assay, summary over leukemic cell lines; assay type: cell-based; conditions: Homo sapiens, read-out: IC50 values, range
Description: (§7) CCRF-CEM acute lymphoblastic leukemia (ALL) and K562 chronic myeloid leukemia (CML) cells and their MDR P-glycoprotein overexpressing variants, CEM/ADR5000 and Lucena 1, respectively, were a generous gift from Dr. T. Efferth (Institute of Pharmacy and Biochemistry, Johannes Gutenberg University, Mainz, Germany) and Dr. V. Rumjanek (Instituto de Bioquímica Médica Leopoldo de Meis, Universidade Federal do Rio de Janeiro, Rio de Janeiro, Brazil), respectively. The HEK293T non-tumor derived cell line and human isolated mononuclear cells (PBMC) were also tested. […]
(§8) To investigate the cytotoxic potential of the isolated compounds, the MTT colorimetric assay was performed. […] The compounds were evaluated at a final maximum concentration of 100 μM. […] Absorbance was measured with an iMark micro-plate reader (Bio-Rad, USA) at 595 nm. […] The percentage of cytotoxic activity of the assayed compounds was determined by the following formula: cytotoxicity (%) = [1 − (optical density of treated cells − optical density DMSO)/(optical density of ethanol control cells − optical density DMSO)] × 100.

[9] = test system: HEK293T non-tumor derived cell line; assay: MTT cell proliferation assay; assay type: cell-based; conditions: Homo sapiens, HEK-293T
Description: as §7, §8

O=C(/C=C/c1ccccc1)c1ccc(O)cc1O [Compound 1, 2′,4′-dihydroxychalcone]
IC50 [1]: 6.6 µM | IC50 ([1]; Homo sapiens): < 10 µM | selectivity index (SI) ([1]; IC50 HEK293T / IC50 CCRF-CEM): 10.1 | selectivity index (SI) ([1]; IC50 PBMC / IC50 CCRF-CEM): 12.5 | IC50 ([2]; Homo sapiens, K562, 72 h): < 30 µM | selectivity index (SI) ([2]; IC50 PBMC / IC50 K562): 3.0 | IC50 [2]: 27.5 µM | time at which a significant decrease (p < 0.05) in number of viable cells vs ethanol control was observed (K562 cells; 20.8 μM): 48 h | time at which a significant decrease (p < 0.05) in number of viable cells vs ethanol control was observed (K562 cells; 41.6 μM): 24 h | time at which a significant difference (p < 0.05) in number of viable cells vs ethanol control was observed (CCRF-CEM cells; 2.6 μM): 72 h | time at which a significant difference (p < 0.05) in number of viable cells vs ethanol control was observed (CCRF-CEM cells; 5.2 μM): 48 h | MIC ([3]; agar dilution, 24 h): 250 µg/mL (≈ 1040 µM) | MBC ([3]; value in parentheses): 500 µg/mL (≈ 2080 µM) | MIC ([4]; agar dilution, 24 h): 250 µg/mL (≈ 1040 µM) | MBC ([4]; value in parentheses): > 500 µg/mL | MBC [5]: 31 (31) μg/mL | MIC ([5]; Staphylococcus aureus, ATCC6538, agar dilution, 24 h): 31 µg/mL (≈ 129 µM) | MBC ([5]; Staphylococcus aureus, ATCC6538, read-out: MBC): 31 µg/mL (≈ 129 µM) | MIC ([6]; agar dilution, 24 h): 62 µg/mL (≈ 258 µM) | MBC ([6]; value in parentheses): 125 µg/mL (≈ 520 µM) | MIC ([7]; agar dilution, 24 h): 62 µg/mL (≈ 258 µM) | MBC ([7]; value in parentheses): 125 µg/mL (≈ 520 µM) | IC50 [8]: 6.6 to 30 µM | IC50 [9]: 67 µM
